Test results from patent US7723523B2, “Tetrahydropyridothiophenes” (4SC AG, priority 2004, dated 2010).

How the values were obtained:
[1] = test system: RKO (RKOp27) human colon adenocarcinoma cells; test: Alamar Blue cell viability assay, anti-proliferative/cytotoxic activity on proliferating RKOp27 cells; type: cell-based; settings: absence of Ponasterone A, 72 hours incubation, read-out: IC50 RKO p27 proliferating
Summary of the method: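 IC50 values come from concentration-effect curves of Alamar Blue fluorescence (544/590 nm), relative to untreated controls set at 100%. Cells were RKOp27, seeded at 4000/well in DMEM with 10% FCS and exposed from 24 h post-seeding for 72 h (37 °C, 5% CO2) to semi-log dilutions, each run in quadruplicate.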

[2] = test system: RKO colon adenocarcinoma cells (RKOp27) arrested by expression of ectopic p27Kip1; test: Alamar Blue cell viability assay on RKOp27 cells arrested by Ponasterone A-induced p27Kip1 (cell cycle specific mode of action); type: cell-based; settings: Homo sapiens, RKOp27, 72 h, cells arrested by p27Kip1 induced with 10 μM Ponasterone A, 72 hours incubation, read-out: IC50 RKO p27 arrested
Summary of the method: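 Viability measured by Alamar Blue fluorescence (ex 544, em 590 nm) after 72 h, 37 °C compound exposure in quadruplicate, normalized to untreated cells as 100%. Cells were p27Kip1-arrested RKOp27, induced with 10 μM Ponasterone A at seeding; compound added 24 h later.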

| SMILES | IC50 [1] [nM] | IC50 [2] [µM] |
| --- | --- | --- |
| COCCOC(=O)N1CCc2c(sc(NC(=O)/C=C/c3ccccc3OC)c2C#N)C1 [Example 137, 3-Cyano-2-[(E)-3-(2-methoxy-phenyl)-allanoylamino]-4,7-dihydro-5H-thieno[2,3-c]pyridine-6-carboxylic acid 2-methoxy-ethyl ester] | ≤ 2000 | ≥ 100 |
| COc1ccccc1/C=C/C(=O)Nc1sc2c(c1C#N)CCN(C(=O)OCc1ccccn1)C2 [Example 138, 3-Cyano-2-[(E)-3-(2-methoxy-phenyl)-allanoylamino]-4,7-dihydro-5H-thieno[2,3-c]pyridine-6-carboxylic acid pyridin-2-ylmethyl ester] | ≤ 2000 | ≥ 100 |
| COc1ccccc1/C=C/C(=O)Nc1sc2c(c1C#N)CCN(C(=O)OCCc1ccccn1)C2 [Example 139, 3-Cyano-2-[(E)-3-(2-methoxy-phenyl)-allanoylamino]-4,7-dihydro-5H-thieno[2,3-c]pyridine-6-carboxylic acid 2-pyridin-2-yl-ethyl ester] | ≤ 2000 | ≥ 100 |
| COc1ccccc1/C=C/C(=O)Nc1sc2c(c1C#N)CCN(C(=O)OCc1cccnc1)C2 [Example 140, 3-Cyano-2-[(E)-3-(2-methoxy-phenyl)-allanoylamino]-4,7-dihydro-5H-thieno[2,3-c]pyridine-6-carboxylic acid pyridin-3-ylmethyl ester] | ≤ 2000 | ≥ 100 |
| COCCOC(=O)N1CCc2c(sc(NC(=O)/C=C/c3ccccc3Cl)c2C#N)C1 [Example 142, 2-[(E)-3-(2-Chloro-phenyl)-allanoylamino]-3-cyano-4,7-dihydro-5H-thieno[2,3-c]pyridine-6-carboxylic acid 2-methoxy-ethyl ester] | ≤ 2000 | ≥ 100 |
| COc1ccc(OC(=O)N2CCc3c(sc(NC(=O)/C=C/c4cccnc4)c3C#N)C2)cc1 [Example 143, 3-Cyano-2-((E)-3-pyridin-3-yl-allanoylamino)-4,7-dihydro-5H-thieno[2,3-c]pyridine-6-carboxylic acid 4-methoxy-phenyl ester] | ≤ 2000 | ≥ 100 |
| N#Cc1c(NC(=O)/C=C/c2cccnc2)sc2c1CCN(C(=O)OCc1ccccc1)C2 [Example 144, 3-Cyano-2-((E)-3-pyridin-3-yl-allanoylamino)-4,7-dihydro-5H-thieno[2,3-c]pyridine-6-carboxylic acid benzyl ester] | ≤ 2000 | ≥ 100 |
| CCCOC(=O)N1CCc2c(sc(NC(=O)/C=C/c3cccnc3)c2C#N)C1 [Example 145, 3-Cyano-2-((E)-3-pyridin-3-yl-allanoylamino)-4,7-dihydro-5H-thieno[2,3-c]pyridine-6-carboxylic acid propyl ester] | ≤ 500 | ≥ 50 |
| COc1ccc(CCOC(=O)N2CCc3c(sc(NC(=O)/C=C/c4cccnc4)c3C#N)C2)cc1 [Example 146, 3-Cyano-2-((E)-3-pyridin-3-yl-allanoylamino)-4,7-dihydro-5H-thieno[2,3-c]pyridine-6-carboxylic acid 2-(4-methoxy-phenyl)-ethyl ester] | ≤ 2000 | ≥ 100 |
| COc1cccc(COC(=O)N2CCc3c(sc(NC(=O)/C=C/c4cccnc4)c3C#N)C2)c1 [Example 147, 3-Cyano-2-((E)-3-pyridin-3-yl-allanoylamino)-4,7-dihydro-5H-thieno[2,3-c]pyridine-6-carboxylic acid 3-methoxy-benzyl ester] | ≤ 2000 | ≥ 100 |
| N#Cc1c(NC(=O)/C=C/c2cccnc2)sc2c1CCN(C(=O)OCCCc1ccccc1)C2 [Example 148, 3-Cyano-2-((E)-3-pyridin-3-yl-allanoylamino)-4,7-dihydro-5H-thieno[2,3-c]pyridine-6-carboxylic acid 3-phenyl-propyl ester] | ≤ 2000 | ≥ 100 |
| N#Cc1c(NC(=O)/C=C/c2cccnc2)sc2c1CCN(C(=O)OCc1ccccn1)C2 [Example 149, 3-Cyano-2-((E)-3-pyridin-3-yl-allanoylamino)-4,7-dihydro-5H-thieno[2,3-c]pyridine-6-carboxylic acid pyridin-2-ylmethyl ester] | ≤ 2000 | ≥ 100 |
| N#Cc1c(NC(=O)/C=C/c2cccnc2)sc2c1CCN(C(=O)OCc1cccnc1)C2 [Example 150, 3-Cyano-2-((E)-3-pyridin-3-yl-allanoylamino)-4,7-dihydro-5H-thieno[2,3-c]pyridine-6-carboxylic acid pyridin-3-ylmethyl ester] | ≤ 2000 | ≥ 100 |
| COC(=O)c1ccc(OC(=O)N2CCc3c(sc(NC(=O)/C=C/c4cccnc4)c3C#N)C2)cc1 [Example 151, 3-Cyano-2-((E)-3-pyridin-3-yl-allanoylamino)-4,7-dihydro-5H-thieno[2,3-c]pyridine-6-carboxylic acid 4-methoxycarbonyl-phenyl ester] | ≤ 2000 | ≥ 100 |
| COc1cccc(CCOC(=O)N2CCc3c(sc(NC(=O)/C=C/c4cccnc4)c3C#N)C2)c1 [Example 152, 3-Cyano-2-((E)-3-pyridin-3-yl-allanoylamino)-4,7-dihydro-5H-thieno[2,3-c]pyridine-6-carboxylic acid 2-(3-methoxy-phenyl)-ethyl ester] | ≤ 2000 | ≥ 100 |
| N#Cc1c(NC(=O)/C=C/c2cccnc2)sc2c1CCN(C(=O)Oc1ccccn1)C2 [Example 154, 3-Cyano-2-((E)-3-pyridin-3-yl-allanoylamino)-4,7-dihydro-5H-thieno[2,3-c]pyridine-6-carboxylic acid pyridin-2-yl ester] | ≤ 2000 | ≥ 100 |
| N#Cc1c(NC(=O)/C=C/c2cccnc2)sc2c1CCN(C(=O)OCCN1CCOCC1)C2 [Example 156, 3-Cyano-2-((E)-3-pyridin-3-yl-allanoylamino) 4,7-dihydro-5H-thieno[2,3-c]pyridine-6-carboxylic acid 2-morpholin-4-yl-ethyl ester] | ≤ 2000 | ≥ 100 |
| N#Cc1c(NC(=O)/C=C/c2cccnc2)sc2c1CCN(C(=O)OCCCc1cccnc1)C2 [Example 157, 3-Cyano-2-((E)-3-pyridin-3-yl-allanoylamino)-4,7-dihydro-5H-thieno[2,3-c]pyridine-6-carboxylic acid 3-pyridin-3-yl-propyl ester] | ≤ 500 | ≥ 50 |
| N#Cc1c(NC(=O)/C=C/c2cccnc2)sc2c1CCN(C(=O)OCCc1ccccn1)C2 [Example 158, 3-Cyano-2-((E)-3-pyridin-3-yl-allanoylamino)-4,7-dihydro-5H-thieno[2,3-c]pyridine-6-carboxylic acid 2-pyridin-2-ylethyl ester] | ≤ 2000 | ≥ 100 |
| N#Cc1c(NC(=O)/C=C/c2cccnc2)sc2c1CCN(C(=O)OCCc1cccnc1)C2 [Example 159, 3-Cyano-2-((E)-3-pyridin-3-yl-allanoylamino)-4,7-dihydro-5H-thieno[2,3-c]pyridine-6-carboxylic acid 2-pyridin-3-yl-ethyl ester] | ≤ 2000 | ≥ 100 |
| N#Cc1c(NC(=O)/C=C/c2cccnc2)sc2c1CCN(C(=O)OCc1ccncc1)C2 [Example 160, 3-Cyano-2-((E)-3-pyridin-3-yl-allanoylamino)-4,7-dihydro-5H-thieno[2,3-c]pyridin-6-carboxylic acid pyridin-4-ylmethyl ester] | ≤ 2000 | ≥ 100 |
| CCOC(=O)COC(=O)N1CCc2c(sc(NC(=O)/C=C/c3cccnc3)c2C#N)C1 [Example 161, 3-Cyano-2-((E)-3-pyridin-3-yl-allanoylamino)-4,7-dihydro-5H-thieno[2,3-c]pyridine-6-carboxylic acid ethoxycarbonylmethyl ester] | ≤ 2000 | ≥ 100 |
| COC(=O)CCOC(=O)N1CCc2c(sc(NC(=O)/C=C/c3cccnc3)c2C#N)C1 [Example 162, 3-Cyano-2-((E)-3-pyridin-3-yl-allanoylamino)-4,7-dihydro-5H-thieno[2,3-c]pyridine-6-carboxylic acid 2-methoxycarbonyl-ethyl ester] | ≤ 2000 | ≥ 100 |
| CC1(C)OCC(COC(=O)N2CCc3c(sc(NC(=O)/C=C/c4cccnc4)c3C#N)C2)O1 (stereo not drawn) [Example 164, 3-Cyano-2-((E)-3-pyridin-3-yl-allanoylamino)-4,7-dihydro-5H-thieno[2,3-c]pyridine-6-carboxylic acid 2,2-dimethyl-[1,3]dioxolan-4-ylmethyl ester] | ≤ 2000 | ≥ 100 |
| N#Cc1c(NC(=O)/C=C/c2cccnc2)sc2c1CCN(C(=O)OCCOCc1ccccc1)C2 [Example 166, 3-Cyano-2-((E)-3-pyridin-3-yl-allanoylamino)-4,7-dihydro-5H-thieno[2,3-c]pyridine-6-carboxylic acid 2-benzyloxy-ethyl ester] | ≤ 2000 | ≥ 100 |
| COCCOC(=O)N1CCc2c(sc(NC(=O)/C=C/c3cccnc3)c2C#N)C1 [Example 167, 3-Cyano-2-((E)-3-pyridin-3-yl-allanoylamino)-4,7-dihydro-5H-thieno[2,3-c]pyridine-6-carboxylic acid 2-methoxy-ethyl ester] | ≤ 2000 | ≥ 100 |
| N#Cc1c(NC(=O)/C=C/c2cccnc2)sc2c1CCN(C(=O)OC1CCCCC1)C2 [Example 168, 3-Cyano-2-((E)-3-pyridin-3-yl-allanoylamino)-4,7-dihydro-5H-thieno[2,3-c]pyridine-6-carboxylic acid cyclohexyl ester] | ≤ 500 | ≥ 50 |
